{
  "source": "patent US9371265B2",
  "about": "“Compositions and methods related to inhibitors of JAK kinase” (EP PHARMA, INC., priority 2012, dated 2016)",
  "key": {"normal human naïve PBMCs": {"system": "normal human naïve PBMCs", "assay": "Naive PBMC viability (MTS)", "type": "cell-based", "conditions": "72 hours, concentrations giving complete loss of JAK3-dependent cell viability (0-10 μM)", "description": "FIGS. 2A-2F. Selective inhibition of JAK3 by EP009 results in loss of JAK3-dependent tumor cell line viability with no detectable off-target effects in key cell types. (A) Chemical structure of EP009 (M.W. 224.34). (B) Kit225 or (C) BaF/3 cells cultured in the presence of IL-2 or IL-3, respectively, were treated with vehicle (PBS; lane a) or increasing amounts of EP009 (0-50 μM; lanes b-h) for 12 hours. Cells were then lysed, clarified, and immunoprecipitated (IP) with anti-JAK3 (α-JAK3) or anti-JAK2 (α-JAK2), and subjected to Western blot (WB) analysis with anti-phosphotyrosine (α-pY). Blots were stripped and reprobed with corresponding antibody to verify equivalent protein loading. […] (E) Kit225 or BaF/3 cells were cultured with increasing amounts of EP009 (0-10 μM) for 72 hours and cell viability measured with the MTS tetrazolium salt assay. Values represent mean absorbance (OD490-OD650 nm) normalized to vehicle (PBS) treated control cells, while error bars represent the standard deviation (n=3). (F) HEK293, HEPG2, or naïve primary human PBMCs were cultured with increasing amounts of EP009 (0-10 μM) for 72 hours and cell viability measured with the MTS tetrazolium salt assay. Values represent mean absorbance (OD490-OD650 nm) normalized to vehicle (PBS) treated control cells, while error bars represent the standard deviation (n=3). […]"}, "IκBα": {"system": "IκBα", "assay": "Phospho-IκBα in SU-DHL-1 cells (Luminex multiplex)", "type": "cell-based, human", "conditions": "24 hours", "description": "FIGS. 8A-8F. Effect of EP009 on ALCL cells is mediated through selective activation of ERK1/2 and JNK1/2 stress signaling pathways, and inhibition of p70 S6 kinase growth signaling pathways. SU-DHL-1 cells were treated with vehicle (PBS) or increasing amounts of EP009 (0-50 μM) for 24 hours. Cells were then lysed, clarified, and subjected to Luminex multiplex analysis to detect phosphorylated (A) ERK1/2, (B) JNK1/2, (C) p70 S6 kinase, (D) IκBα, (E) CREB, and (F) p38. Values represent mean fluorescence intensity (MFI) normalized to corresponding GAPDH MFI, while error bars represent the standard deviation (n=2). Representative data from two independent experiments are shown. Statistical significance was determined using Student's t-test. (*, p<0.05).\nThe MILLIPLEX MAP 8-plex Multi-Pathway Signaling Phosphoprotein kit (Millipore) was used to detect phosphorylated ERK1/2 (Thr185/Tyr187), STAT3 (Ser727), JNK1/2 (Thr183/Tyr185), p70 S6 kinase (Thr412), IκBα (Ser32), STAT5A/B (Tyr694/699), CREB (Ser133), and p38 (Thr180/Tyr182). The MILLIPLEX MAP 5-plex STAT Phosphoprotein kit (Millipore) was used to detect phosphorylated STAT1 (Tyr701), STAT2 (Tyr690), STAT3 (Tyr705), STAT5A/B (Tyr694/699), and STAT6 (Tyr641). The MILLIPLEX MAP Human Apoptosis 3-plex kit (Millipore) was used to detect cleaved PARP, cleaved Caspase 3, and total GAPDH for protein normalization."}, "ERBB2": {"target": "ERBB2 (Homo sapiens, UniProt P04626)", "sequence (P04626 23-1255)": "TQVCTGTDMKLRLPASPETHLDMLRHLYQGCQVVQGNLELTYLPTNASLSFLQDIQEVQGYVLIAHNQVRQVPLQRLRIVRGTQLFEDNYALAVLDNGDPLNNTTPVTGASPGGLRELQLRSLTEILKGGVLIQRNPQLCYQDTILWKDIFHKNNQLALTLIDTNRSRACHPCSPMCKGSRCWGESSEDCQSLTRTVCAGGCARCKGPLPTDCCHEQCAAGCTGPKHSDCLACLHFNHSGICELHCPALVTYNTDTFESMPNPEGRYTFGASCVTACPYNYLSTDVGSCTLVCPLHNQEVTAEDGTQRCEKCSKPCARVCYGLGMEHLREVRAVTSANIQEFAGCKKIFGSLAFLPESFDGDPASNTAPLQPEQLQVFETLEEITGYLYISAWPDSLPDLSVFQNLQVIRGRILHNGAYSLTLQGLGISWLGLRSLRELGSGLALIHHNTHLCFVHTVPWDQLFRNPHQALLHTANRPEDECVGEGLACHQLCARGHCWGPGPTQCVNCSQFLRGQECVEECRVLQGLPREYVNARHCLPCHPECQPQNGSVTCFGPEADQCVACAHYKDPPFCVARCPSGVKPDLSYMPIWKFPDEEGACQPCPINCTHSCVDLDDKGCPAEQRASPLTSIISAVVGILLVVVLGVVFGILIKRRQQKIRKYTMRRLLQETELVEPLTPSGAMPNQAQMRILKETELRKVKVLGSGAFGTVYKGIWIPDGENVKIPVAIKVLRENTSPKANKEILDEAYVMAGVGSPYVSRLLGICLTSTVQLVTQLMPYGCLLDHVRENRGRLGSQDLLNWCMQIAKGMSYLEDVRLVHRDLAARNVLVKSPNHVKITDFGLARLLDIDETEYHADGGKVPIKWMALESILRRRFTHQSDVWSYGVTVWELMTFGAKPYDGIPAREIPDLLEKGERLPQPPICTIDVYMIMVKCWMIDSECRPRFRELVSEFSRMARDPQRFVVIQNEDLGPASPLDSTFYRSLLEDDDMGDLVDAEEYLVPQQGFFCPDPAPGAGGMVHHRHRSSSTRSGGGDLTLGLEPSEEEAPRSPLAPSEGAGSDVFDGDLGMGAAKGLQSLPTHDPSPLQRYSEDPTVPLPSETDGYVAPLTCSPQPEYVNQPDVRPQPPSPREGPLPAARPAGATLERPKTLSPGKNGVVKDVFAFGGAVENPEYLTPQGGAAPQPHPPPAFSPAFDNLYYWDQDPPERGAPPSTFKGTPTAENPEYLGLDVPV", "assay": "Kinase panel: ERBB2", "type": "biochemical", "conditions": "10 μM EP009", "description": "(§1) Achieving JAK3 selectivity remains a significant challenge in the development of new small molecules for the treatment of cancer and immune-derived diseases. As such, the inventors employed cell-based screening assays of small-molecule libraries based upon the chemical scaffold of the established JAK3 inhibitor NC1153 (Stepkowski et al., J Immunol. (2005), 175(7):4236-4246) EP009 (FIG. 2A) was selected as a lead compound due to improved intrinsic stability (>95% purity in various solvents at 37° C. for 24 hours; FIG. 3) and high-degree of JAK3 selectivity. To test JAK3 versus JAK2 specificity of EP009, the IL-2/JAK3-dependent Kit225, and IL-3/JAK2-dependent BaF/3 cell lines were used. Kit225 and BaF/3 cells growing in the presence of IL-2 or IL-3, respectively, were treated with ascending concentrations of EP009 for 12 hours and cellular JAK3 and JAK2 tyrosine phosphorylation levels detected by Western blot analysis (FIGS. 2B and 2C). Following densitometric analysis, EP009 was determined to dose-dependently reduce IL-2-mediated JAK3 tyrosine phosphorylation with a cellular 50% inhibitory concentration (IC50) between 10 and 20 μM (FIG. 2B). […] To globally evaluate specificity, the inhibitory activity of EP009 was measured against a panel of protein kinases distributed throughout the kinome using the scanEDGE profiling service (KINOMEscan). […]"}, "TSSK1B": {"target": "TSSK1B (Homo sapiens, UniProt Q9BXA7)", "sequence (Q9BXA7 whole entry)": "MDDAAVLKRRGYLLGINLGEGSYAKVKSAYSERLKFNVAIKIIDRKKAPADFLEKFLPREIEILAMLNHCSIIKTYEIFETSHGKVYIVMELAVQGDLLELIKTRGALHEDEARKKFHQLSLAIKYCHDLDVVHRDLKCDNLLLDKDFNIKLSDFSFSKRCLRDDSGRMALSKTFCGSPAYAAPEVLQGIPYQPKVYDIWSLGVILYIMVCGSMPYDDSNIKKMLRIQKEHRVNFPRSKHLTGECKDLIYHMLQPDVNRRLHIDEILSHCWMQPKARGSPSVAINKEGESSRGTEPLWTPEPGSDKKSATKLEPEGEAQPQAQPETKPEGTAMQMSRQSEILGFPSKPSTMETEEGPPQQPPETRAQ", "assay": "Kinase panel: TSSK1B", "type": "biochemical", "conditions": "10 μM EP009", "description": "as §1"}, "EGFR(L858R)": {"target": "EGFR(L858R) (Homo sapiens, UniProt P00533, L858R)", "assay": "Kinase panel: EGFR(L858R)", "type": "biochemical", "conditions": "10 μM EP009", "description": "as §1"}},
  "data": [
    {"smiles": "C=C1CCCCCCCCCC(CO)C1=O", "note": "(centres unmarked) [EP009, 2-(Hydroxymethyl)-12-methylenecyclododecanone]", "values": [
      {"measurement": "effect on normal human naïve PBMC viability", "setting": "normal human naïve PBMCs", "value": "no detectable loss of cell viability"},
      {"measurement": "IκBα phosphorylation status", "setting": "IκBα", "value": "No statistically significant change"},
      {"measurement": "Kinase Activity (% of Control)", "setting": "ERBB2", "value": "100 % of Control"},
      {"measurement": "Kinase Activity (% of Control)", "setting": "TSSK1B", "value": "98 % of Control"},
      {"measurement": "Kinase Activity (% of Control)", "setting": "EGFR(L858R)", "value": "100 % of Control"}
    ]}
  ]
}
